The term EC50 denotes the midpoint of the concentration-response curve.

The subject of the experiment is eNOS promoter. Description: Activation of eNOS transcription (eNOS promoter-luciferase reporter gene assay). It is filed as cell-based, human. The note with it: 18 h incubation; for EC50: EC50 of transcription induction ratio vs compound concentration, determined graphically, human endothelial cell line stably transfected with eNOS promoter-luciferase construct; for maximal fold induction / TIR(max): maximum transcription induction ratio (luciferase activity with compound / solvent alone), human endothelial cell line with eNOS promoter-luciferase construct; for maximal fold induction: read-out: TIR(max). The method, then:
Measurement of Activation of eNOS Transcription
Activation of eNOS transcription was measured as described in detail in Li et al. “Activation of protein kinase C alpha and/or epsilon enhances transcription of the human endothelial nitric oxide synthase gene”, Mol. Pharmacol. 1998; 53: 630-637.
Briefly, a 3.5 kB long fragment 5′ of the starting codon of the eNOS gene was cloned, sequenced and cloned in firefly luciferase expression plasmids to monitor activation of the eNOS promoter by reporter gene activity. A human endothelial cell line stable transfected and expressing this promoter-reporter construct was used for compound testing. Cells were incubated for 18 h with compounds.
All compounds were dissolved in sterile DMSO. A final concentration of 0.5% DMSO in complete medium was allowed. Induction of reporter gene expression in these cells was measured using a standard luciferase assay system (Promega, Cat. No E150) according to the manufacturer's instructions. Luciferase induction in cells incubated with compounds were compared to those incubated with solvent alone. The ratio of both activities (transcription induction ratio, TIR) was plotted as a function of compound concentration. Typically, TIR values started at low concentrations at a ratio of 1, indicating no compound effect, and extended up to a maximum TIR value TIR(max) which indicates the increase of the eNOS transcription. EC50 values of transcription induction ratios as a function of compound concentration were determined graphically.
A general note: Reporter assays use an easily measured gene product as a stand-in for the process of interest.

`Nc1ncccc1C(=O)NC1CCCc2ccccc2C1` (single isomer, unassigned) [Compound 24, 2-AMINO-N-(6,7,8,9-TETRAHYDRO-5H-BENZOCYCLOHEPTEN-6-YL)-NICOTINAMIDE]: the EC50 turned out to be 30 nM and the maximal fold induction is 3.1.

As to `Cc1ncccc1C(=O)NC1CCCc2ccccc2C1` (single isomer, unassigned) [Compound 26, 2-METHYL-N-(6,7,8,9-TETRAHYDRO-5H-BENZOCYCLOHEPTEN-6-YL)-NICOTINAMIDE], the EC50 is 1800 nM and the maximal fold induction came to 3.1.

`Cc1nc(C)c(C(=O)NC2CCCc3ccccc3C2)s1` (single isomer, unassigned) [Compound 28, 2,4-DIMETHYL-THIAZOLE-5-CARBOXYLIC ACID (6,7,8,9-TETRAHYDRO-5H-BENZOCYCLOHEPTEN-6-YL)-AMIDE]: the EC50 stood at 49 nM and the maximal fold induction was 3.4.

As to `Cc1nc(C)c(C(=O)NC2CCCc3ccccc3C2)s1` (single isomer, unassigned) [Compound 29, 2,4-DIMETHYL-THIAZOLE-5-CARBOXYLIC ACID (6,7,8,9-TETRAHYDRO-5H-BENZOCYCLOHEPTEN-6-YL)-AMIDE], the half-maximal effective concentration (EC50) was found to be 9600 nM and the “TIR(max)” value was determined as 3.4.

With `Cc1c(C(=O)NC2CCCc3ccccc3C2)cnn1-c1ccccc1` (single isomer, unassigned) [Compound 31, 5-METHYL-1-PHENYL-1H-PYRAZOLE-4-CARBOXYLIC ACID (6,7,8,9-TETRAHYDRO-5H-BENZOCYCLOHEPTEN-6-YL)-AMIDE], the EC50 was determined as 5000 nM and the maximal fold induction was 2.8.

As for `Cc1cnc(C(=O)NC2CCCc3ccccc3C2)cn1` (single isomer, unassigned) [Compound 32, 5-METHYL-PYRAZINE-2-CARBOXYLIC ACID (6,7,8,9-TETRAHYDRO-5H-BENZOCYCLOHEPTEN-6-YL)-AMIDE], the 50% effective concentration (EC50) came to 47 nM and the maximal fold induction is 3.

On to `Cc1cnc(C(=O)NC2CCCc3ccccc3C2)cn1` (single isomer, unassigned) [Compound 33, 5-METHYL-PYRAZINE-2-CARBOXYLIC ACID (6,7,8,9-TETRAHYDRO-5H-BENZOCYCLOHEPTEN-6-YL)-AMIDE], for which the EC50 turned out to be 3300 nM and the “TIR(max)” value was found to be 2.6.

With `O=C(NC1CCCc2ccccc2C1)c1cnn(-c2ccccc2)c1C(F)(F)F` (single isomer, unassigned) [Compound 34, 1-PHENYL-5-TRIFLUOROMETHYL-1H-PYRAZOLE-4-CARBOXYLIC ACID (6,7,8,9-TETRAHYDRO-5H-BENZOCYCLOHEPTEN-6-YL)-AMIDE], the EC50 is 60 nM and the maximal fold induction turned out to be 2.8.

With `O=C(NC1CCCc2ccccc2C1)c1cnn(-c2ccccc2)c1C(F)(F)F` (single isomer, unassigned) [Compound 35, 1-PHENYL-5-TRIFLUOROMETHYL-1H-PYRAZOLE-4-CARBOXYLIC ACID (6,7,8,9-TETRAHYDRO-5H-BENZOCYCLOHEPTEN-6-YL)-AMIDE], the EC50 was determined as 3300 nM and the “TIR(max)” value came out at 3.5.

As for `O=C(NC1CCCc2ccccc2C1)c1ccc(C(F)(F)F)nc1` (single isomer, unassigned) [Compound 37, N-(6,7,8,9-TETRAHYDRO-5H-BENZOCYCLOHEPTEN-6-YL)-6-TRIFLUOROMETHYL-NICOTINAMIDE], the EC50 came out at 283 nM and the maximal fold induction is 2.9.

Regarding `Cc1nc(C(F)(F)F)ccc1C(=O)NC1CCCc2ccccc2C1` (single isomer, unassigned) [Compound 39, 2-METHYL-N-(6,7,8,9-TETRAHYDRO-5H-BENZOCYCLOHEPTEN-6-YL)-6-TRIFLUOROMETHYL-NICOTINAMIDE], the EC50 is 496 nM and the maximal fold induction is 2.9.

Consider `CN(C)c1cccc(C(=O)NC2CCCc3ccccc3C2)c1` (single isomer, unassigned) [Compound 43, 3-DIMETHYLAMINO-N-(6,7,8,9-TETRAHYDRO-5H-BENZOCYCLOHEPTEN-6-YL)-BENZAMIDE], for which the EC50 worked out at 80 nM and the maximal fold induction is 3.2.

As to `Nc1nccnc1C(=O)NC1CCCc2ccccc2C1` (single isomer, unassigned) [Compound 45, 3-AMINO-PYRAZINE-2-CARBOXYLIC ACID (6,7,8,9-TETRAHYDRO-5H-BENZOCYCLOHEPTEN-6-YL)-AMIDE], the EC50 amounted to 60 nM and the maximal fold induction was 2.9.

For the compound `Cc1ccc(C(=O)NC2CCCc3ccccc3C2)cn1` (single isomer, unassigned) [Compound 54, 6-METHYL-N-(6,7,8,9-TETRAHYDRO-5H-BENZOCYCLOHEPTEN-6-YL)-NICOTINAMIDE], the EC50 came to 42 nM and the maximal fold induction came to 3.2.

Turning to `Cc1cc(C)c(C(=O)NC2CCCc3ccccc3C2)cn1` (single isomer, unassigned) [Compound 110, 4,6-DIMETHYL-N-(6,7,8,9-TETRAHYDRO-5H-BENZOCYCLOHEPTEN-6-YL)-NICOTINAMIDE], the 50% effective concentration (EC50) came out at 1000 nM and the maximal fold induction amounted to 3.1.

Take `Cc1ccc(C(=O)NC2CCCc3ccccc3C2)c(C)n1` (single isomer, unassigned) [Compound 112, 2,6-DIMETHYL-N-(6,7,8,9-TETRAHYDRO-5H-BENZOCYCLOHEPTEN-6-YL)-NICOTINAMIDE]: the EC50 came out at 40 nM and the maximal fold induction was 3.1.

With `CNc1nc(C)ccc1C(=O)NC1CCCc2ccccc2C1` (single isomer, unassigned) [Compound 123, 6-METHYL-2-METHYLAMINO-N-(6,7,8,9-TETRAHYDRO-5H-BENZOCYCLOHEPTEN-6-YL)-NICOTINAMIDE], the EC50 was 260 nM and the maximal fold induction turned out to be 2.9.

Take `CNc1nc(C)ccc1C(=O)NC1CCCc2ccccc2C1` (single isomer, unassigned) [Compound 124, 6-METHYL-2-METHYLAMINO-N-(6,7,8,9-TETRAHYDRO-5H-BENZOCYCLOHEPTEN-6-YL)-NICOTINAMIDE]: the EC50 came to 6 nM and the “TIR(max)” value came to 2.9.

On to `O=C(NC1CCCc2ccccc2C1)c1ccc(F)cc1` (single isomer, unassigned; (+)) [Compound 1b, (+)-4-Fluoro-N-(6,7,8,9-tetrahydro-5H-benzocyclohepten-6-yl)-benzamide], for which the EC50 is 6000 nM and the “TIR(max)” value is given as 2.9.

For the compound `Cc1cc(C(=O)NC2CCCc3ccccc3C2)c(C)n1Cc1ccncc1` (single isomer, unassigned; (+)) [Compound 47, (+)-2,5-DIMETHYL-1-PYRIDIN-4-YLMETHYL-1H-PYRROLE-3-CARBOXYLIC ACID (6,7,8,9-TETRAHYDRO-5H-BENZOCYCLOHEPTEN-6-YL)-AMIDE], the EC50 stood at 20 nM and the maximal fold induction was 3.4.

Turning to `Cc1cc(C(=O)NC2CCCc3ccccc3C2)c(C)[nH]1` (single isomer, unassigned; (+)) [Compound 49, (+)-2,5-DIMETHYL-1H-PYRROLE-3-CARBOXYLIC ACID (6,7,8,9-TETRAHYDRO-5H-BENZOCYCLOHEPTEN-6-YL)-AMIDE], the EC50 was found to be 40 nM and the maximal fold induction is 3.

Regarding `O=C(NC1CCCc2ccccc2C1)c1ccnc(N2CCCC2)c1` (single isomer, unassigned; (+)) [Compound 149, (+)-2-PYRROLIDIN-1-YL-N-(6,7,8,9-TETRAHYDRO-5H-BENZOCYCLOHEPTEN-6-YL)-ISONICOTINAMIDE], the EC50 amounted to 3400 nM and the maximal fold induction came to 3.

`O=C(NC1CCCc2ccccc2C1)c1ccc(F)cc1` (single isomer, unassigned; (-)) [Compound 1a, (−)-4-Fluoro-N-(6,7,8,9-tetrahydro-5H-benzocyclohepten-6-yl)-benzamide]: the EC50 is 1 nM and the “TIR(max)” value came out at 3.2.

`Cc1cc(C(=O)NC2CCCc3ccccc3C2)c(C)n1Cc1ccncc1` (single isomer, unassigned; (-)) [Compound 48, (−)-2,5-DIMETHYL-1-PYRIDIN-4-YLMETHYL-1H-PYRROLE-3-CARBOXYLIC ACID (6,7,8,9-TETRAHYDRO-5H-BENZOCYCLOHEPTEN-6-YL)-AMIDE]: the 50% effective concentration (EC50) stood at 590 nM and the “TIR(max)” value was found to be 3.4.

Take `Cc1cc(C(=O)NC2CCCc3ccccc3C2)c(C)[nH]1` (single isomer, unassigned; (-)) [Compound 50, (−)-2,5-DIMETHYL-1H-PYRROLE-3-CARBOXYLIC ACID (6,7,8,9-TETRAHYDRO-5H-BENZOCYCLOHEPTEN-6-YL)-AMIDE]: the EC50 was 1800 nM and the “TIR(max)” value worked out at 3.

On to `O=C(NC1CCCc2ccccc2C1)c1nc(NCc2ccccc2)ccc1Cl` (centres unmarked) [143 B], for which the EC50 stood at 28000 nM and the “TIR(max)” value amounted to 2.5.

For `Cc1cc(Cl)ccc1C(=O)NC1CCCc2ccccc2C1` (centres unmarked) [Compound 3, 4-CHLORO-2-METHYL-N-(6,7,8,9-TETRAHYDRO-5H-BENZOCYCLOHEPTEN-6-YL)-BENZAMIDE], the EC50 is below 80 nM and the maximal fold induction is 2.2.

Consider `O=C(NC1CCCc2ccccc2C1)c1ccc(F)cc1Cl` (centres unmarked) [Compound 4, 2-CHLORO-4-FLUORO-N-(6,7,8,9-TETRAHYDRO-5H-BENZOCYCLOHEPTEN-6-YL)-BENZAMIDE], for which the EC50 is below 80 nM and the maximal fold induction was determined as 2.8.

The record behind these values is patent publication US7709478B2, “Acylated 6,7,8,9-tetrahydro-5H-benzocycloheptenyl amines and their use as pharmaceutical agents” (sanofi-aventis Deutschland GmbH, priority 2001, dated 2010).
